Results as given in BindingDB's records for doi:10.1016/j.ejmech.2023.115347 (Johann Wolfgang Goethe University, 2023).

Biological target: Ribosomal protein S6 kinase alpha-1 (Homo sapiens) (UniProt Q15418)
Test: Inhibition of full length NanoLuc fused RSK1b (unknown origin) transfected in HEK293T cells using NanoBRET NanoGlo substrate incubated for 2 hrs in presence of tracer by NanoBRET assay

Sequence of Ribosomal protein S6 kinase alpha-1 (Homo sapiens) (Q15418 whole entry, looked up, the tested form may be a part): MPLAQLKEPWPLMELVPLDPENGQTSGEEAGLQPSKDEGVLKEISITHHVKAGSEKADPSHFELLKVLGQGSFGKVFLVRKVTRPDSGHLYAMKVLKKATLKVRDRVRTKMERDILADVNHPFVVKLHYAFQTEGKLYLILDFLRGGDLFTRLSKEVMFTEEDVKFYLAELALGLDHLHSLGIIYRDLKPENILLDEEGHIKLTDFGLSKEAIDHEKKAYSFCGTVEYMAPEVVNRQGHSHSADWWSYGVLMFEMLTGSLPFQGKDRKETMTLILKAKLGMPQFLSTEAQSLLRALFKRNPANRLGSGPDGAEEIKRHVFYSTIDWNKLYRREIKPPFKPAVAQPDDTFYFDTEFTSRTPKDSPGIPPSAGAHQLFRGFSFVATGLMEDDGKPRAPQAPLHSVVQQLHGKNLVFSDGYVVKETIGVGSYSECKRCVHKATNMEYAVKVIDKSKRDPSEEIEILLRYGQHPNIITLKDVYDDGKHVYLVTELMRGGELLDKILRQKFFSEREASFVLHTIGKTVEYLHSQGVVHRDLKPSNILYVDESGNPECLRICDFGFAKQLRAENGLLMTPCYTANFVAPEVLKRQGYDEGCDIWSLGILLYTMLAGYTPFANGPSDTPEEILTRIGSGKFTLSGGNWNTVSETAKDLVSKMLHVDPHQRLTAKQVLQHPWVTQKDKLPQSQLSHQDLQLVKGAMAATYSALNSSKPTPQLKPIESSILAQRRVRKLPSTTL

CNc1ncc2cc(-c3cc(F)ccc3F)c(=O)n(CCCCN)c2n1
IC50: > 45 µM
